ChEMBL document CHEMBL3734733, “Optimization of on-resin palladium-catalyzed Sonogashira cross-coupling reaction for peptides and its use in a structure-activity relationship study of a class B GPCR ligand” (Eur J Med Chem, 2015)
pIC50: −log10 of the molar value. Active and inactive are the calls of the source. The calls are words filed in the database; no cut-off is given here.

Legend:
[1] = target: T1, Pituitary adenylate cyclase-activating polypeptide type I receptor (Homo sapiens, UniProt P41586); assay: Displacement of Ac-[125I]-PACAP27 from recombinant human PAC1 expressed in CHO cells after 90 mins by gamma counting analysis; format: cell-based; conditions: for pIC50: read-out: IC50
Target sequence in this assay (P41586 whole entry): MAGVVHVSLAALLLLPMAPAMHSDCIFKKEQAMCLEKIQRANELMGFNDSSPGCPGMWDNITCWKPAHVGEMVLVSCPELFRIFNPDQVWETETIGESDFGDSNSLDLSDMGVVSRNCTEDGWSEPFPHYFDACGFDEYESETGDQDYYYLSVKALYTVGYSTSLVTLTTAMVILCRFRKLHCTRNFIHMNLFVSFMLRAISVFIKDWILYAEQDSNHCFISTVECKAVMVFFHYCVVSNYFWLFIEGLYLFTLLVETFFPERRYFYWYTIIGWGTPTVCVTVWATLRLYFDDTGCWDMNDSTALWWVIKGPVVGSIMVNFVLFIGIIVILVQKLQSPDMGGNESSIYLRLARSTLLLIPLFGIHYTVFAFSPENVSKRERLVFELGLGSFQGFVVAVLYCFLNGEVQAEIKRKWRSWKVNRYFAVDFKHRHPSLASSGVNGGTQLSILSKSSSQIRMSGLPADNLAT

[2] = target: T1, Pituitary adenylate cyclase-activating polypeptide type I receptor; assay: Activation of PAC1 in human SH-SY5Y cells assessed as stimulation of forskolin-induced cAMP production at 10^-7 to 10^-5 M after 30 mins; format: cell-based
Target sequence in this assay (P41586 21-468 limits assumed): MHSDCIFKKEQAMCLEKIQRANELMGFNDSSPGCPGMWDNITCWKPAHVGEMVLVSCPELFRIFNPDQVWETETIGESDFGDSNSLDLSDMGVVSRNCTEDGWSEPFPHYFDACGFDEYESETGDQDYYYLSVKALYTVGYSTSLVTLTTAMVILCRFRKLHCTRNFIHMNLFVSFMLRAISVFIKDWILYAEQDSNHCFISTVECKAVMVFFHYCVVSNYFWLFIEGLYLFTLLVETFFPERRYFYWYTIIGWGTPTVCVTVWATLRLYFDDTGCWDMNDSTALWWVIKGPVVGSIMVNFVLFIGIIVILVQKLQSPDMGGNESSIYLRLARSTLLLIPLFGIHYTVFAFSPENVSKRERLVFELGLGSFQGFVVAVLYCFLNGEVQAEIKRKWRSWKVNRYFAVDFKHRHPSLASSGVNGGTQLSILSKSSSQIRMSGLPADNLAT

SH-SY5Y = assay: Neuroprotective activity against MPP+-induced toxicity in human SH-SY5Y cells assessed as increase in cell viability at 100 nM preincubated for 4 hrs followed by incubation with MPP+ for 20 hrs measured after 24 hrs by MTS assay relative to control; format: functional
[3] = target: T2, Vasoactive intestinal polypeptide receptor 2 (Homo sapiens) (UniProt P41587); assay: Activation of VPAC2 in human SH-SY5Y cells assessed as stimulation of forskolin-induced cAMP production at 10^-7 to 10^-5 M after 30 mins; format: functional, cell-based
T2 sequence (whole entry): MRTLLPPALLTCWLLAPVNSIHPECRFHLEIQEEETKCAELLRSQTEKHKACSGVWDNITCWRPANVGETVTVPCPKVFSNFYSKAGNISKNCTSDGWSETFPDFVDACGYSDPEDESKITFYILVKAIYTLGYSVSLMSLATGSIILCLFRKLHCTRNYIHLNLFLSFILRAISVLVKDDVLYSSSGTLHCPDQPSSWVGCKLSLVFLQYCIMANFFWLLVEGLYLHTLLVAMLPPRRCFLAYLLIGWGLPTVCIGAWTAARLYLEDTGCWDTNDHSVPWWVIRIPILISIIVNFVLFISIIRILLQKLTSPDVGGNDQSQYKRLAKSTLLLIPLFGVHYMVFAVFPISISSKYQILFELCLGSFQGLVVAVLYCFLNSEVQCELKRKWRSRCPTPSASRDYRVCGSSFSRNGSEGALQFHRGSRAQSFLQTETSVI

[4] = target: T3, Vasoactive intestinal polypeptide receptor 1 (Homo sapiens, UniProt P32241); assay: Displacement of Ac-[125I]-PACAP27 from recombinant human VPAC1 expressed in CHO cells after 90 mins by gamma counting analysis; format: cell-based; conditions: for pIC50: read-out: IC50
T3 sequence (P32241 whole entry): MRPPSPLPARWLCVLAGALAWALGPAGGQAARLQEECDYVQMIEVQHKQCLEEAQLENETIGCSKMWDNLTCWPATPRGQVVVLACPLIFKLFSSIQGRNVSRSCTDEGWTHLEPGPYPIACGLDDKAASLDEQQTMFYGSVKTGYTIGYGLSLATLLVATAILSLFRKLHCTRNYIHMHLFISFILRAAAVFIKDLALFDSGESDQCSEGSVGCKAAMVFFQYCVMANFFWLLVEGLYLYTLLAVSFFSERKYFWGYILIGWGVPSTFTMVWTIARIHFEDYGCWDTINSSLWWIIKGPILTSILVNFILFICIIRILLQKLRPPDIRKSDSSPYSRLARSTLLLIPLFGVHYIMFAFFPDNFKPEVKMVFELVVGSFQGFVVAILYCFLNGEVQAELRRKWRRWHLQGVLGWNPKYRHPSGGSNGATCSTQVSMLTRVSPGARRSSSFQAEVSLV

[5] = target: T4, Vasoactive intestinal polypeptide receptor 1 (Homo sapiens) (UniProt P32241); assay: Activation of VPAC1 in human SH-SY5Y cells assessed as stimulation of forskolin-induced cAMP production at 10^-7 to 10^-5 M after 30 mins; format: functional, cell-based
T4 sequence (whole entry): T3 sequence (P32241 whole entry)

[6] = target: T5, Vasoactive intestinal polypeptide receptor 2 (Homo sapiens, UniProt P41587); assay: Displacement of Ac-[125I]-PACAP27 from recombinant human VPAC2 expressed in CHO cells after 90 mins by gamma counting analysis; format: cell-based; conditions: for pIC50: read-out: IC50
T5 sequence (P41587 whole entry): T2 sequence (whole entry)

pIC50 [1] | Activity [2] | Activity [3] | pIC50 [4] | Activity [5] | pIC50 [6] | IC50 ([4]; read-out: pIC50 (converted)) | IC50 ([6]; read-out: pIC50 (converted)) | IC50 ([1]; read-out: pIC50 (converted)) | SMILES | Activity (SH-SY5Y)
7.24 | Active | Active | 8.05 | Active | 7.44 |  |  |  | CC[C@H](C)[C@H](NC(=O)CNC(=O)[C@H](CC(=O)O)NC(=O)[C@H](CO)NC(=O)[C@@H](N)Cc1cnc[nH]1)C(=O)N[C@@H](Cc1ccc(C#Cc2ccc(F)cc2)cc1)C(=O)N[C@H](C(=O)N[C@@H](CC(=O)O)C(=O)N[C@@H](CO)C(=O)N[C@@H](Cc1ccc(O)cc1)C(=O)N[C@@H](CO)C(=O)N[C@@H](CCCNC(=N)N)C(=O)N[C@@H](Cc1ccc(O)cc1)C(=O)N[C@@H](CCCNC(=N)N)C(=O)N[C@@H](CCCCN)C(=O)N[C@@H](CCC(N)=O)C(=O)N[C@@H](CCSC)C(=O)N[C@@H](C)C(=O)N[C@H](C(=O)N[C@@H](CCCCN)C(=O)N[C@@H](CCCCN)C(=O)N[C@@H](Cc1ccc(O)cc1)C(=O)N[C@@H](CC(C)C)C(=O)N[C@@H](C)C(=O)N[C@@H](C)C(=O)N[C@H](C(=O)N[C@@H](CC(C)C)C(N)=O)C(C)C)C(C)C)[C@@H](C)O | 85%
 |  |  |  |  |  |  |  |  | CC[C@H](C)[C@H](NC(=O)CNC(=O)[C@H](CC(=O)O)NC(=O)[C@H](CO)NC(=O)[C@@H](N)Cc1cnc[nH]1)C(=O)N[C@@H](Cc1ccccc1)C(=O)N[C@H](C(=O)N[C@@H](CC(=O)O)C(=O)N[C@@H](CO)C(=O)N[C@@H](Cc1ccc(O)cc1)C(=O)N[C@@H](CO)C(=O)N[C@@H](CCCNC(=N)N)C(=O)N[C@@H](Cc1ccc(O)cc1)C(=O)N[C@@H](CCCNC(=N)N)C(=O)N[C@@H](CCCCN)C(=O)N[C@@H](CCC(N)=O)C(=O)N[C@@H](CCSC)C(=O)N[C@@H](C)C(=O)N[C@H](C(=O)N[C@@H](CCCCN)C(=O)N[C@@H](CCCCN)C(=O)N[C@@H](Cc1ccc(O)cc1)C(=O)N[C@@H](CC(C)C)C(=O)N[C@@H](C)C(=O)N[C@@H](C)C(=O)N[C@H](C(=O)N[C@@H](CC(C)C)C(N)=O)C(C)C)C(C)C)[C@@H](C)O | 85%
 |  |  |  |  |  | 14.1 nM | 22.9 nM |  | CC[C@H](C)[C@H](NC(=O)CNC(=O)[C@H](CC(=O)O)NC(=O)[C@H](CO)NC(=O)[C@@H](N)Cc1cnc[nH]1)C(=O)N[C@@H](Cc1ccc(-c2ccccc2)cc1)C(=O)N[C@H](C(=O)N[C@@H](CC(=O)O)C(=O)N[C@@H](CO)C(=O)N[C@@H](Cc1ccc(O)cc1)C(=O)N[C@@H](CO)C(=O)N[C@@H](CCCNC(=N)N)C(=O)N[C@@H](Cc1ccc(O)cc1)C(=O)N[C@@H](CCCNC(=N)N)C(=O)N[C@@H](CCCCN)C(=O)N[C@@H](CCC(N)=O)C(=O)N[C@@H](CCSC)C(=O)N[C@@H](C)C(=O)N[C@H](C(=O)N[C@@H](CCCCN)C(=O)N[C@@H](CCCCN)C(=O)N[C@@H](Cc1ccc(O)cc1)C(=O)N[C@@H](CC(C)C)C(=O)N[C@@H](C)C(=O)N[C@@H](C)C(=O)N[C@H](C(=O)N[C@@H](CC(C)C)C(N)=O)C(C)C)C(C)C)[C@@H](C)O | 
7.28 | Active | Active | 7.92 | Active | 7.28 |  |  | 44.7 nM | CC[C@H](C)[C@H](NC(=O)CNC(=O)[C@H](CC(=O)O)NC(=O)[C@H](CO)NC(=O)[C@@H](N)Cc1cnc[nH]1)C(=O)N[C@@H](Cc1ccc(C#Cc2ccccc2)cc1)C(=O)N[C@H](C(=O)N[C@@H](CC(=O)O)C(=O)N[C@@H](CO)C(=O)N[C@@H](Cc1ccc(O)cc1)C(=O)N[C@@H](CO)C(=O)N[C@@H](CCCNC(=N)N)C(=O)N[C@@H](Cc1ccc(O)cc1)C(=O)N[C@@H](CCCNC(=N)N)C(=O)N[C@@H](CCCCN)C(=O)N[C@@H](CCC(N)=O)C(=O)N[C@@H](CCSC)C(=O)N[C@@H](C)C(=O)N[C@H](C(=O)N[C@@H](CCCCN)C(=O)N[C@@H](CCCCN)C(=O)N[C@@H](Cc1ccc(O)cc1)C(=O)N[C@@H](CC(C)C)C(=O)N[C@@H](C)C(=O)N[C@@H](C)C(=O)N[C@H](C(=O)N[C@@H](CC(C)C)C(N)=O)C(C)C)C(C)C)[C@@H](C)O | 85%
